Data taken from patent US20250270198A1, “PYRIDONE COMPOUNDS AS TRPA1 INHIBITORS” (D. E. Shaw Research, LLC, priority 2022, published 2025).

Tests used:
hERG channel = hERG channel (Homo sapiens (Human), UniProt Q12809); experiment: hERG activity, automated patch clamp (SyncroPatch); format: cell-based; details: CHO-K1 cells stably expressing hERG; tail current at −50 mV; compounds at 50 μM and 100 μM; Table 4
Procedure: This assay was used to evaluate the disclosed compounds' inhibition activities against the hERG channel.
CHO-K1 cells stably expressing hERG were grown in Ham's F-12 Medium with Glutamine containing 10% heat-inactivated FBS, 1% Penicillin/Streptomycin, Hygromycin (100 μg/ml), and G418 (100 μg/ml). Cells used for electrophysiology were plated in plastic culture flasks and grown at 37° C. in a 5% CO2-humidified incubator per ChanPharm SOP. Stocks were maintained in cryogenic storage.
The cells were bathed in an extracellular solution containing 140 mM NaCl, 4 mM KCl, 2 mM CaCl2), 1 mM MgCl2, 5 mM Glucose, and 10 mM HEPES; pH adjusted to 7.4 with NaOH; 295-305 mOsm. The internal solution contained 10 mM KCl, 110 mM KF, 10 mM NaCl, 10 mM EGTA, 10 mM HEPES; pH adjusted to 7.2 with KOH; 280-285 mOsm. All compounds were dissolved in DMSO at 30 mM. Compound stock solutions were freshly diluted with external solution to concentrations of 50 μM and 100 μM. The highest content of DMSO […].
All experiments were performed at room temperature. Each cell acted as its own control. In preparation for a recording session, intracellular solution (see above) was loaded into the intracellular compartments of the automated patch clamp platform SyncroPatch (Nanion) chip and the cell suspension was pipetted into the extracellular compartments. After establishment of a whole-cell configuration, membrane current recordings, and compound application were enabled by means of the SyncroPatch. hERG currents were elicited by a voltage pulse pattern with fixed amplitudes (depolarization: +20 mV amplitude, 300 ms duration; repolarization: −50 mV, 300 ms duration) repeated at 3 s intervals from a holding potential of −80 mV.
Data acquisition and analysis were performed using DataControl384 (Nanion's proprietary software). To determine the (percentage) inhibition, the last single pulse in the pulse train (i.e., the repolarization step to −50 mV; tail current) at a given compound concentration was used. AUC and peak values, obtained in the presence of compound, were normalized to control values in the absence of compound.

human TRPA1 channel = human TRPA1 channel (Homo sapiens (Human), UniProt O75762); experiment: TRPA1 inhibitor activity, automated patch clamp (SyncroPatch); format: cell-based; details: CHO cells inducibly expressing human TRPA1; currents elicited by carvacrol (300 μM), holding potential −60 mV; Table 4
Sequence of human TRPA1 channel (O75762 whole entry): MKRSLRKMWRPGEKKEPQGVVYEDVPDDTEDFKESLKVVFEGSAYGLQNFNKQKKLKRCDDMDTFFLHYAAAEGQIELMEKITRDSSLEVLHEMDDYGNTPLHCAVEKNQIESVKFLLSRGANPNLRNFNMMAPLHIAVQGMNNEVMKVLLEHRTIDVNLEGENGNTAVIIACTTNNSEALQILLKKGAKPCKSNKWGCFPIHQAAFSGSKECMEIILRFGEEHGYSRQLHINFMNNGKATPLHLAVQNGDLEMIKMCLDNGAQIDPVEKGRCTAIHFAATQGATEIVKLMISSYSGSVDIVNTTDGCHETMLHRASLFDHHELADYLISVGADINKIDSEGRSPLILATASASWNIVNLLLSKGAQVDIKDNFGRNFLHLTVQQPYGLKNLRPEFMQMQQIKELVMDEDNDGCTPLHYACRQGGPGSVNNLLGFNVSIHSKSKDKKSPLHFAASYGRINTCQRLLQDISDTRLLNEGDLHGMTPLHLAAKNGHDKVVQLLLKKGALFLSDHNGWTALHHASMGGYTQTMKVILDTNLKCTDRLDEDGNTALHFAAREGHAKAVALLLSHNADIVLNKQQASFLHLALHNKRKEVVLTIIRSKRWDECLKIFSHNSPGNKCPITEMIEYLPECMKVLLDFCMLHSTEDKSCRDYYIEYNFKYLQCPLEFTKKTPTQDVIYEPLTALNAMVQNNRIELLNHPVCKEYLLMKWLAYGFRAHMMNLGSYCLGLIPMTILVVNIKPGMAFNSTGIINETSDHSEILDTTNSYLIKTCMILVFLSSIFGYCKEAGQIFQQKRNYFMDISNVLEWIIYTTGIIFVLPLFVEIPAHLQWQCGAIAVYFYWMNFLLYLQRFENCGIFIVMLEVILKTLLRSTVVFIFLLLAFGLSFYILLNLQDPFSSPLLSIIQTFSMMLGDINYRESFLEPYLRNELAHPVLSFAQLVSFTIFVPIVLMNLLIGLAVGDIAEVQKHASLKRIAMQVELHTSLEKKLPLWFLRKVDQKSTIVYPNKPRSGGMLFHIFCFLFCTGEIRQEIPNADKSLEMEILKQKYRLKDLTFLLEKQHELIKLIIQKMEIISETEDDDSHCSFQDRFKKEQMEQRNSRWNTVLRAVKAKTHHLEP
Procedure: This assay was used to evaluate the disclosed compounds' inhibition activities against the human TRPA1 channel.
CHO cells inducibly expressing human TRPA1 were grown in DMEM containing 10% heat-inactivated FBS, 1 mM Sodium Pyruvate, 2 mM L-Glutamine, Zeocin (100 μg/ml) and Blasticidin (10 μg/ml). Expression was induced by addition of Doxycycline (1 μg/ml) 24 hours before experiments. Cells used for electrophysiology were plated in plastic culture flasks and grown at 37° C. in a 5% CO2-humidified tissue culture incubator per ChanPharm SOP. Stocks were maintained in cryogenic storage.
The cells were bathed in an extracellular solution containing 80 mM NaCl, 60 mM NMDG, 4 mM KCl, 2 mM CaCl2), 6 mM MgCl2, 5 mM Glucose. 10 mM HEPES, 3 mM HEDTA; pH adjusted to 7.4 with NaOH; 305-310 mOsm. All compounds were dissolved in DMSO at 30 mM. The internal solution contained 10 mM CsCl, 110 mM CsF, 10 mM NaCl, 10 mM EGTA, 10 mM HEPES, 4 mM MgATP, 0.25 mM NaGTP, 4 mM BAPTA; pH adjusted to 7.2 with CsOH; 285-290 mOsm. Compound stock solutions were freshly diluted with external solution to concentrations of 3 nM, 10 nM 30 nM, 100 nM, 300 nM, 1 μM, 3 μM, 10 μM, and 30 μM. The highest content of DMSO (0.1%) was present at 30 μM.
All experiments were performed at room temperature. Each cell acted as its own control. In preparation for a current recording session, intracellular solution (see above) was loaded into the intracellular compartments of the automated patch clamp platform SyncroPatch (Nanion) chip and the cell suspension was pipetted into the extracellular compartments. After establishment of a whole-cell configuration, membrane current recordings and compound application were enabled by means of the SyncroPatch. TRPA1 currents were elicited by application of carvacrol (300 μM) at a constant holding potential of −60 mV (see Table A below).
To determine IC50 values, AUC and peak values, obtained in the presence of a given compound concentration, were normalized to control values in absence of compound. Using DataControl384 (Nanion's proprietary software), IC50 values were derived by fitting the normalized data to the Hill equation.

Sequence of hERG channel (Q12809 whole entry): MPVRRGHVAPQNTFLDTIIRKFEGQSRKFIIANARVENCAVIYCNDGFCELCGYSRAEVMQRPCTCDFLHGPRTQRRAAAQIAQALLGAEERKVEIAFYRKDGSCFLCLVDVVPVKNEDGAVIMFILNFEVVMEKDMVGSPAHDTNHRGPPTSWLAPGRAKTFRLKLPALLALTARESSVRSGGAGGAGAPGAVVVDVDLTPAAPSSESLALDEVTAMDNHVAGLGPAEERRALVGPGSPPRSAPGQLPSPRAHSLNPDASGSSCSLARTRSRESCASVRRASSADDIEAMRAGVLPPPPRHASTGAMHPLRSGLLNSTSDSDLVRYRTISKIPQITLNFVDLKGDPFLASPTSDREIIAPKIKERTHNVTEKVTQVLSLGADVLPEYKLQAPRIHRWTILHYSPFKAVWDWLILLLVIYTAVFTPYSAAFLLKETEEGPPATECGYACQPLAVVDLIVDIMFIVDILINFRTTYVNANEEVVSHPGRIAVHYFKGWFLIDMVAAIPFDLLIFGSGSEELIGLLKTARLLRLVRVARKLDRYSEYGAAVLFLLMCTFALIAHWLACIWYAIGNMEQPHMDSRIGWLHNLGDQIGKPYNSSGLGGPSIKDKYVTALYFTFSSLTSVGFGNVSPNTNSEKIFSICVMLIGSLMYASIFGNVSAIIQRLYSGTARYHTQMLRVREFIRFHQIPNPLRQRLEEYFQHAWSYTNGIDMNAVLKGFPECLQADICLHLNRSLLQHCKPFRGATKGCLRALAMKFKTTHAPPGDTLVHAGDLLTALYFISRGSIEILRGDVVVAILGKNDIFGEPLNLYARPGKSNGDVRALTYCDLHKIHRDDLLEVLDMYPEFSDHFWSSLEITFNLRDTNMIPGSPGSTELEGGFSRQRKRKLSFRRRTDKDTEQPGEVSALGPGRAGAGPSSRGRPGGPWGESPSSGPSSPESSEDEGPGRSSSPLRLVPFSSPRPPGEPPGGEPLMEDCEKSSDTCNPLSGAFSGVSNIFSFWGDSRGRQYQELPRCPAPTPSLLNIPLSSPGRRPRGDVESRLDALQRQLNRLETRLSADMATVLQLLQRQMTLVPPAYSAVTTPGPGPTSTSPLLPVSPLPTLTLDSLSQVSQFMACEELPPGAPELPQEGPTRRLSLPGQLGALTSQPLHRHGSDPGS

- IC50 (human TRPA1 channel): < 10 µM
SMILES: Cc1cc(-c2cn[nH]c2)cn(Cc2nc(CCc3ccc(Cl)cc3)no2)c1=O [Compound 8, 1-((3-(4-chlorophenethyl)-1,2,4-oxadiazol-5-yl)methyl)-3-methyl-5-(1H-pyrazol-4-yl)pyridin-2(1H)-one]
- IC50 (hERG channel): < 50 µM
